According to patent publication US20170343549A9, “METHODS FOR DETECTING AND MONITORING COLORECTAL CANCER” (REGENTS OF THE UNIVERSITY OF MINNESOTA, priority 2015, published 2017):
“Also recorded” adds a separate entry of the source.

How the values were obtained:
Type in all cases: in vivo, human
the other four PGs = test: Circulating levels of the other four PGs in FAP patients, regular aspirin users vs nonusers (plasma enzyme immunoassay); settings: regular aspirin use vs nonusers, FIG. 4A
Method: (§1) All clinical studies using human subjects or human materials were approved by the Mayo Clinic review board. Volunteers were recruited by the Gastroenterology and Hepatology group at Mayo Clinic, Rochester, Minn. Individuals in the healthy control group (n=16) were normal patients who underwent colonoscopy screening. Familial adenomatous polyposis (FAP) patients who reported taking two or more standard (325 mg) aspirin tablets per week were classified as regular aspirin users (n=14) and those reporting consumption of less aspirin were classified as aspirin nonusers (n=24) (Chan et al., 2007. N Engl J Med 356 (21):2131-2142). Individuals in the sporadic colorectal cancer group (n=20) were patients who were diagnosed with colorectal cancer, but without a family history of colorectal cancer. Other inclusion criteria were as follows: age at 18-75 years old; gender ratio approximately 1:1; and a non-smoking history. The measurement of PGs in plasma from patients was performed using enzyme immunoassay kits from Cayman Chemical Co. (Ann Arbor, Mich.) following the manufacturer's instructions. Briefly, blood was collected from a vein in the arm just inside the elbow using a 22 gauge needle. Before blood collection, the tourniquet was applied about three inches above the selected puncture site. […]

TBXA2R = test: Immunohistochemistry staining of TBXA2R in polyps of FAP patients, aspirin users vs nonusers; settings: epithelial cells from polyps, aspirin intake, FIG. 4B
Method: (§2) All clinical studies using human subjects or human materials were approved by the Mayo Clinic review board. Volunteers were recruited by the Gastroenterology and Hepatology group at Mayo Clinic, Rochester, Minn. Individuals in the healthy control group (n=16) were normal patients who underwent colonoscopy screening. Familial adenomatous polyposis (FAP) patients who reported taking two or more standard (325 mg) aspirin tablets per week were classified as regular aspirin users (n=14) and those reporting consumption of less aspirin were classified as aspirin nonusers (n=24) (Chan et al., 2007. N Engl J Med 356 (21):2131-2142). Individuals in the sporadic colorectal cancer group (n=20) were patients who were diagnosed with colorectal cancer, but without a family history of colorectal cancer. Other inclusion criteria were as follows: age at 18-75 years old; gender ratio approximately 1:1; and a non-smoking history.
(§3) Surgically resected human colon tissues at all clinical stages were fixed in 10% formalin overnight at room temperature. […] Immunohistochemistry staining intensity was quantified by calculating the integrated optical density (IOD, sum) of area of interest using the Image Pro-Plus 7.0 software program (Media Cybernetics, Inc., Rockville, Md.).

Ki-67 = test: Immunohistochemistry staining of Ki-67 in polyps of FAP patients, aspirin users vs nonusers; settings: epithelial cells from polyps, aspirin intake, FIG. 4B
Method: as §2, §3

TBXAS1 = test: Immunohistochemistry staining of TBXAS1 in polyps of FAP patients, aspirin users vs nonusers; settings: epithelial cells from polyps, aspirin intake, FIG. 4B
Method: as §2, §3

circulating TXA2 = test: Circulating TXA2 level in FAP patients, regular aspirin users vs nonusers (plasma enzyme immunoassay); settings: regular aspirin use (two or more 325 mg tablets per week, n=14) vs nonusers (n=24), FIG. 4A
Method: as §1

`CC(=O)Oc1ccccc1C(=O)O` [aspirin] was tested, and the “levels of the other four PGs” value (the other four PGs) was “little effect”, the “expression of TBXA2R” value (TBXA2R) was “lower expression” and the “expression of Ki-67” value (Ki-67) was “lower expression”. The “expression of TBXAS1” value (TBXAS1) was “lower expression” and the “circulating TXA2 level” value (circulating TXA2) was “significant (p<0.001) decrease; also recorded: significantly decreased”.
